Measured values reported in patent US20050216965A1, “Method of detecting and reducing boar taint” (UNIVERSITY OF GUELPH, priority 1998, published 2005).
Where a name gives a salt, the structure may show the parent alone. One block for each molecule: values may come before it.

Assays:
cytochrome P450 = tested on: cytochrome P450
Method: The metabolism of skatole was assayed in a medium containing 50 mM Tris-HCL buffer, pH 7.4, 10 mM potassium phosphate, 0.1 mM EDTA, 20% glycerol, 0.01 mM skatole and 1 mg/mL microsomel protein in a total volume of 2 mL. The reactions were started by addition of NADH and NADPH to 1 mM final concentration of each after 3 min of preincubation at 37° C. After 30 min at 37° C., the reactions were terminated by addition of 2 mL of ice-cold 0.2 M ammonium acetate buffer, pH 5.0.
Those incubations with no inhibitor added were regarded as controls. The effect of different P450 inhibitors on skatole metabolism was evaluated under the same conditions by including different concentrations of P450 inhibitors into the medium before preincubation.
Each assay was performed in duplicate. […] After adding ammonium acetate buffer, 5 μL of 0.01 mg/mL indole-3-acetonitrile was added to the reaction mixture as an internal standard. The mixture was then passed through a solid phase extraction tC18 cartridge (Waters Co., Milford, Mass.) previously conditioned with 2 mL of methanol and then 2 mL of water. The column was washed with 1 mL of water and skatole metabolites were eluted with 2×0.5 mL of acetonitrile. The acetonitrile was removed under a gentle stream of nitrogen at 40° C. and the metabolites were resuspended in 200 μl of acetonitrile for HPLC analysis. The HPLC equipment included a Spectra-Physics (San Jose, Calif., USA) SP8800 pump, SP8800 autosampler and SP4290 integrator, and a Phenomenex (Torrance, Calif., USA) Prodigy ODS-2 C18, 250×4.6 mm, 5 μm column. […] Injection volume was 100 μl.
For the purpose of the analysis, peak areas of the metabolites in control incubations were considered as 100%. Peak areas of the metabolites in the incubations with inhibitors were transformed to values of those for controls. The statistical model included the effect of the concentration of inhibitor and the effect of animal.

[1] = tested on: thermostable phenol sulfotransferase; assay: Sulfation of 5-OH-3MI by liver cytosol with phenolsulfotransferase inhibitors (Trial III); format: biochemical; settings: pig liver cytosol, 0.01 mM 5-OH-3MI, 1 mM PAPS, 10 min
Method: Trial III. The assay of 5-OH-3MI sulfation in Trial III utilized 1 mg cytosolic protein incubated with 0.01 mM 5-OH-3MI and 1 mM PAPS in 0.05M Tris/HCl pH 7.4 buffer containing 5 mM MgC12 in a total volume of 250 μl. The incubations were carried out in a shaking water bath at 37° C. for 10 min and the reaction was stopped with 250 μL ice-cold acetonitrile. After the addition of acetonitrile, the mixture was vortexed and centrifuged at 4,000 g for 15 min. A 400 μL aliquot of the clear supernatant was diluted with 400 μL water and 100 μL of the mixture was analyzed immediately by high-performance liquid chromatography (HPLC) as described below. Conjugates were identified based on the following criteria: (1) no peaks corresponding to conjugates appeared when cytosol and/or PAPS were excluded from the incubations; (2) no peaks corresponding to conjugates appeared when boiled cytosol was used, and (3) the peaks corresponding to the conjugates disappeared after addition of 10 μl of type H-2 sulfatase to the incubation mixture and further incubation for 3 h at 37° C. in a shaking water bath. Sulfation activity was measured as the formation of sulfoconjugate per minute per mg of cytosolic protein.
The effects of the phenolsulfotransferase inhibitors PCP and DCNP on the sulfation of 5-OH-3MI were determined by including different final concentrations of PCP or DCNP (0.001, 0.01, 0.1, 1, 10, 100 μM) in the assays. PCP was dissolved in methanol (final assay concentration 1%, v/v) and control incubations for PCP inihibition studies contained 1% methanol. DCNP was dissolved in incubation buffer.
Trial III. 5-OH-skatole and its sulfate conjugate were separated using a previously reported binary gradient system method (Hernandez et al., 1991) with a reverse-phase Prodigy ODS, 5 μm, 250×4.6 mm column (Phenomenex, Torrance, Calif., USA). The mobile phase consisted of 0.05M ammonium acetate buffer pH 5.0, at a flow rate of 1.2 ml/min. A 25-min linear gradient from 10 to 60% acetonitrile was used, with initiation of the gradient 2 min after sample injection. 5-OH-skatole and its conjugate were determined by their fluorescence (excitation wavelength of 285 nm, emission wavelength of 350 nm). Typical retention times for 5-OH-skatole and its conjugate were 18.5 and 13.4 min, respectively.

glucuronyl transferase = assay: Conjugation of microsomal skatole metabolites with glucuronic acid (Trial II-c); format: in vitro ADME; settings: pig liver microsomes, 1 mM UDP-GA, 30 min
Method: (§1) Trial II. For evaluation of skatole metabolite production (Trial II-a, n=22), 1 mg/ml of liver microsomes were incubated in Buffer 1,1 mM NADPH, 1 mM NADH, and 0.01 mM skatole in a total volume of 2 ml for 30 min at 37° C. as previously described (Babol et al., 1997). To determine which microsomal skatole metabolites are conjugated with sulfate (Trial II-b, n=3), the reaction mixture was first incubated for 30 min as in Trial II-a. PAPS was then added to 1 mM final concentration and the incubation continued for 30, 60 and 90 min. Control incubations were performed for the same period of time with no PAPS added. Assays to evaluate the conjugation of skatole metabolites with glucuronic acid (Trial II-c, n=3) were conducted in a similar way by adding 1 mM of UDP-GA after 30 min of initial incubation and continuing the incubation for a further 7.5, 15 and 30 min. […]
(§2) Trial II. […] The metabolites were separated with RP C18 column and detected by measuring UV absorbance at 250 nm and fluorescence with excitation and emission wavelengths set at 285 and 340 nm.
(§3) Trial II. The effect of time of incubation of skatole metabolites with PAPS (Trial I1-b) and UDPGA (Trial I1-c) on the concentrations of the metabolites was analyzed using untransformed values with the GLM procedure. […] The differences in the metabolic activities among the groups were analyzed with the GLM procedure.

sulfotransferase = assay: Conjugation of microsomal skatole metabolites with sulfate (Trial II-b); format: in vitro ADME; settings: pig liver microsomes, 1 mM PAPS, 90 min
Method: as §1, §2, §3

CYP2E1 = CYP2E1 (Sus scrofa, UniProt P79383); settings: uncastrated Yorkshire male pigs; 0.5 g/kg BW daily by gavage, day 14 to day 50; after day 27; P<0.05
Sequence of CYP2E1 (P79383 whole entry): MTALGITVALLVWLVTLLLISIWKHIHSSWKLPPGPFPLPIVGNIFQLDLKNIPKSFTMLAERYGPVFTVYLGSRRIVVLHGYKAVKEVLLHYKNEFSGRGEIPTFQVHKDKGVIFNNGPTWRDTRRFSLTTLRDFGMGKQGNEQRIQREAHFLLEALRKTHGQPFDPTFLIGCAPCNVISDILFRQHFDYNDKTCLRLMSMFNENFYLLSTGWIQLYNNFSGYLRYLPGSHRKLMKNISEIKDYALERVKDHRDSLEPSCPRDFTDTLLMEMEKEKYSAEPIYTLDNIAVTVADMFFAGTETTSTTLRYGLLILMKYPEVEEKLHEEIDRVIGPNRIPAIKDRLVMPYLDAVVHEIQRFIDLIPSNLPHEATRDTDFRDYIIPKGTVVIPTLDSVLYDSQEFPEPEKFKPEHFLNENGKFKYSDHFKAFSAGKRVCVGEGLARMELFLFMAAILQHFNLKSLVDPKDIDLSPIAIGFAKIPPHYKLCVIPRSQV
Method: Eight uncastrated Yorkshire male pigs were utilized in the study. Four males were assigned to the control group while the remaining four were treated with 0.5 g/kg BW of ethanol daily by gavage. Ethanol is a well-established inducer of CYP2E1. Treatment began at day 14 and continued until day 50. Blood samples were collected weekly and plasma skatole levels were measured by HPLC.

Structure (SMILES): O=[N+]([O-])c1cc(Cl)c(O)c(Cl)c1 [DCNP, 2,6-dichloro-4-nitrophenol]
5-sulfatoxyskatole production, % of the control ([1]; inhibitor 10 μM): 13.8%
5-sulfatoxyskatole production, % of the control ([1]; inhibitor 100 μM): 7.1%

Structure (SMILES): Cc1c[nH]c2ccccc12 [skatole, 3-methylindole]
Concentration in incubation with UDPGA, % of control incubations (glucuronyl transferase): 126.1%

Structure (SMILES): Cc1c[nH]c2cc(O)ccc12 [pro-MII, 6-Hydroxy-3-methylindole]
Concentration in incubation with PAPS, % of control (sulfotransferase): 40%
Concentration in incubation with UDPGA, % of control incubations (glucuronyl transferase): 20%

Structure (SMILES): Oc1c(Cl)c(Cl)c(Cl)c(Cl)c1Cl [PCP, Pentachlorophenol]
5-sulfatoxyskatole production, % of the control ([1]; inhibitor 10 μM): 35.3%
5-sulfatoxyskatole production, % of the control ([1]; inhibitor 100 μM): 8%

The remaining lines, values ahead:

Amount of skatole remaining in the reaction mixture after incubation versus control (cytochrome P450): not affected
Formation of F-2, effect in words (cytochrome P450): reduced
Formation of F-3, effect in words (cytochrome P450): reduced
Formation of UV-3, effect in words (cytochrome P450): reduced
Structure (SMILES): CCCC(C(=O)OCCN(CC)CC)(c1ccccc1)c1ccccc1 [SKF 525A, SKF 525A hydrochloride (Proadifen)]

Amount of skatole remaining in the reaction mixture after incubation versus control (cytochrome P450): higher
Formation of UV-3, effect in words (cytochrome P450): reduced
Structure (SMILES): CC(C)(C(=O)c1cccnc1)c1cccnc1 [metyrapone]

Plasma skatole levels versus control group (CYP2E1): significantly lower
Structure (SMILES): CCO [ethanol]

Formation of all the other skatole metabolites, except for F-1 (cytochrome P450): inhibited
Skatole disappearance, effect in words (cytochrome P450): reduced
Structure (SMILES): C=CCSCC=C [DAS, diallyl sulfide]
